Values after ≈ are worked out from the molar mass of the structure shown.
What was measured:
[1] = Aqueous solubility of the compound in pH 7.4 PBS buffer by HPLC-UV analysis; type: physicochemical
[2] = Permeability across apical to basal side in MDCK-MDR1 cells at pH 6.5/7.4 measured at 5 uM by LC-MS/MS analysis; type: ADME, cell-based, Canis lupus familiaris; conditions: dog, MDCK-MDR1, pH 6.5
Cytochrome P450 3A4 = Cytochrome P450 3A4 (Homo sapiens, UniProt P08684); experiment: Inhibition of CYP3A4 in human liver microsome using midazolam as substrate measured upto 50 uM incubated for 10 mins followed by NADPH addition incubated for 10 mins by LC/MS/MS analysis; type: ADME; conditions: microsomes, 20 min
[3] = AUC (0 to infinitive) in CD-1 (ICR) mouse at 50 mg/kg, po measured upto 1440 mins by LC-MS/MS analysis; type: ADME, organism-based; parameters: time < 1440 min, dose 50 mg/kg, route po; conditions: in vivo
[4] = MRT (0 to infinitive) in CD-1 (ICR) mouse at 50 mg/kg, po measured upto 1440 mins by LC-MS/MS analysis; type: ADME, organism-based; conditions: in vivo
[5] = Plasma concentration in CD-1 (ICR) mouse at 50 mg/kg measured 2 hrs by LC-MS/MS analysis; type: ADME, organism-based
[6] = AUC (0 to last) in Sprague-Dawley rat at 10 mg/kg, iv measured upto 1440 mins by LC-MS/MS analysis; type: ADME, organism-based; parameters: time < 1440 min, dose 10 mg/kg, route iv; conditions: in vivo
[7] = Half life in Sprague-Dawley rat at 20 mg/kg, po measured upto 1440 mins by LC-MS/MS analysis; type: ADME, organism-based; conditions: in vivo
[8] = Oral bioavailability in Sprague-Dawley rat at 20 mg/kg measured upto 1440 mins by LC-MS/MS analysis; type: ADME, organism-based; conditions: in vivo
[9] = Half life in Sprague-Dawley rat at 50 mg/kg, po measured upto 1440 mins by LC-MS/MS analysis; type: ADME, organism-based; conditions: in vivo
[10] = MRT (0 to last) in Sprague-Dawley rat at 50 mg/kg, po measured upto 1440 mins by LC-MS/MS analysis; type: ADME, organism-based; conditions: in vivo
[11] = Drug uptake in Sprague-Dawley rat lung at 50 mg/kg, po measured at 0.5 hrs by LC-MS/MS analysis; type: ADME, organism-based; conditions: read-out: Drug uptake
[12] = Drug uptake in Sprague-Dawley rat brain at 50 mg/kg, po measured at 2 hrs by LC-MS/MS analysis; type: ADME, organism-based; conditions: read-out: Drug uptake
MC-38 [13] = experiment: Antitumor activity against mouse MC-38 cells subcutaneously transplanted in C57BL/6N mouse assessed as reduction in AUC of tumor growth at 50 mg/kg, po bid measured on day 20 relative to control; type: functional; conditions: MC-38, 480 h, route sc, time 20 day
MC-38 [14] = experiment: Antitumor activity against mouse MC-38 cells subcutaneously transplanted in C57BL/6N mouse assessed as reduction in absolute tumor volume at 50 mg/kg, po bid measured on day 13 relative to control; type: functional; conditions: MC-38, 312 h, route sc, time 13 day

Cytochrome P450 3A4, sequence (P08684 whole entry): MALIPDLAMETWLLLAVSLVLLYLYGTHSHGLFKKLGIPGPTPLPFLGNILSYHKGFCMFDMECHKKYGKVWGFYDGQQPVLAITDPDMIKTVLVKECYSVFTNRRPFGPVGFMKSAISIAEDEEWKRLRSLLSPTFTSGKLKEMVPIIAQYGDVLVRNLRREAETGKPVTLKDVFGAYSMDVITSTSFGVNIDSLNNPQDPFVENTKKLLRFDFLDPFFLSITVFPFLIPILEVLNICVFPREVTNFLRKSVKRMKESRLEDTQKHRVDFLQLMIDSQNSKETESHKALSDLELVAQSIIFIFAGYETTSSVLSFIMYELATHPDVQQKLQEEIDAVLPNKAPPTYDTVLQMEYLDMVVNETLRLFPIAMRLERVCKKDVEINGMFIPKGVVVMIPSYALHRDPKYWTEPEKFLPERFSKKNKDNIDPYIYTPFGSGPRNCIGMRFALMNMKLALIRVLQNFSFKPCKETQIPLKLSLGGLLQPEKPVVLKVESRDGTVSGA

CCn1c(=O)[nH]c(=O)c2c1nc(Cc1cn3cc(C)sc3n1)n2CC1COC1
solubility [1]: 189 µM (≈ 75.7 µg/mL)
Papp A→B at 5 µM [2]: < 0.54 ×10⁻⁶ cm/s
inhibition (INH) (Cytochrome P450 3A4): Not Active
AUC(0-inf) [3]: 8580 ng·h/mL
MRT inf [4]: 1.65 h
concentration at 2 h [5]: 1610 ng/mL
AUC(0-t) at 24 h [6]: 5000 ng·h/mL
half-life [7]: 4.48 h
bioavailability [8]: 33%
half-life [9]: 3.41 h
MRT last at 24 h [10]: 2.63 h
concentration at 0.5 h [11]: 3160 ng/g
concentration at 2 h [12]: 18 ng/g
inhibition in vivo at 50 mg/kg (MC-38 [13]): 35%
inhibition in vivo at 50 mg/kg (MC-38 [14]): 50%
